# Data taken from patent EP0545195B1, “Indolopyrrolocarbazole derivatives” (BANYU PHARMACEUTICAL CO., LTD., priority 1991, dated 1993).
# Legend:
# mouse leukemia cell P388 = experiment: Proliferation inhibition activity against mouse leukemia cell (Thiazoyl Blue assay); format: cell-based; details: P388 cells, 24 hours culture with test compound, absorbance at 550 nm, read-out: 50% inhibitory concentration (IC₅₀)
# Method: (2) Proliferation inhibition activity against mouse leukemia cell
# 100 µl portions of a cell culturing medium (10% fetal bovine serum-containing-RPMI-1640 medium) containing 3x10³ mouse leukemia cell (P388) were put in a 96-hole microplate, the cells were cultured under 5% CO₂ at 37°C for 24 hours, 10 µl each of test solutions containing test compounds respectively were added respectively, and the cells were further cultured under 5% CO₂ at 37°C for 24 hours. 10 µl portions of 0.5% Thiazoyl Blue were added to the culture broths, and incubation was carried out under 5% CO₂ at 37°C for 2 hours to carry out enzymatic reaction. 20% sodium dodecyl sulfate (SDS) was added to discontinue the reaction, incubation was further carried out at 37°C for 4 hours to dissolve the formed dye, and absorbance at 550 nm was measured and compared with the control group.
# mouse tumor (P388) = experiment: Therapeutic effect against mouse tumor (P388); format: in vivo; details: P388, 10⁶ cancer cells inoculated i.p.
# Excerpt: (1) Therapeutic effect against mouse tumor (P388)
# [1] = dose 1 mg/kg/injection i.p. once a day from 1st to 10th day
# [2] = dose 3 mg/kg/injection i.p. once a day from 1st to 10th day
# [3] = dose 10 mg/kg/injection i.p. once a day from 1st to 10th day
# [4] = dose 30 mg/kg/injection i.p. once a day from 1st to 10th day
# [5] = dose 100 mg/kg/injection i.p. once a day from 1st to 10th day
SMILES,IC50 (mouse leukemia cell P388) [nM],other results
NN1C(=O)c2c(c3c4cccc(O)c4n([C@@H]4O[C@H](CO)[C@@H](O)[C@H](O)[C@H]4O)c3c3[nH]c4c(O)cccc4c23)C1=O [Example 1],< 30,
O=C(O)C=NN1C(=O)c2c(c3c4cccc(O)c4n([C@@H]4O[C@H](CO)[C@@H](O)[C@H](O)[C@H]4O)c3c3[nH]c4c(O)cccc4c23)C1=O [Example 2],290,MST (mean survival number of days) (mouse tumor (P388); [1]): 15.8 ± 0.84 days; T/C (%) (MST of treatment group/MST of control x 100) (mouse tumor (P388); [1]): 128%; MST (mean survival number of days) (mouse tumor (P388); [2]): 17.8 ± 1.92 days; T/C (%) (MST of treatment group/MST of control x 100) (mouse tumor (P388); [2]): 145%; MST (mean survival number of days) (mouse tumor (P388); [3]): >26.4 ± 18.82 days; T/C (%) (MST of treatment group/MST of control x 100) (mouse tumor (P388); [3]): >245%; MST (mean survival number of days) (mouse tumor (P388); [4]): >42.2 ± 24.38 days; T/C (%) (MST of treatment group/MST of control x 100) (mouse tumor (P388); [4]): >343%; MST (mean survival number of days) (mouse tumor (P388); [5]): >47.2 ± 18.90 days; T/C (%) (MST of treatment group/MST of control x 100) (mouse tumor (P388); [5]): >384%
O=C(O)CCC=NN1C(=O)c2c(c3c4cccc(O)c4n([C@@H]4O[C@H](CO)[C@@H](O)[C@H](O)[C@H]4O)c3c3[nH]c4c(O)cccc4c23)C1=O [Example 3],65,
"CO[C@H]1[C@H](O)[C@@H](O)[C@H](n2c3c(Cl)cccc3c3c4c(c5c6cccc(Cl)c6[nH]c5c32)C(=O)N(N)C4=O)O[C@@H]1CO [Example 4, 6-N-aminorebeccamycin]",96,
O=CNN1C(=O)c2c(c3c4cccc(O)c4n([C@@H]4O[C@H](CO)[C@@H](O)[C@H](O)[C@H]4O)c3c3[nH]c4c(O)cccc4c23)C1=O [Example 5],280,MST (mean survival number of days) (mouse tumor (P388); [1]): 16.8 ± 0.84 days; T/C (%) (MST of treatment group/MST of control x 100) (mouse tumor (P388); [1]): 137%; MST (mean survival number of days) (mouse tumor (P388); [2]): 17.8 ± 1.92 days; T/C (%) (MST of treatment group/MST of control x 100) (mouse tumor (P388); [2]): 145%; MST (mean survival number of days) (mouse tumor (P388); [3]): >26.2 ± 10.18 days; T/C (%) (MST of treatment group/MST of control x 100) (mouse tumor (P388); [3]): >213%; MST (mean survival number of days) (mouse tumor (P388); [4]): >23.4 ± 9.74 days; T/C (%) (MST of treatment group/MST of control x 100) (mouse tumor (P388); [4]): >190%; MST (mean survival number of days) (mouse tumor (P388); [5]): >36.4 ± 8.05 days; T/C (%) (MST of treatment group/MST of control x 100) (mouse tumor (P388); [5]): >296%
CC(=O)NN1C(=O)c2c(c3c4cccc(O)c4n([C@@H]4O[C@H](CO)[C@@H](O)[C@H](O)[C@H]4O)c3c3[nH]c4c(O)cccc4c23)C1=O [Example 6],59,
CNN1C(=O)c2c(c3c4cccc(O)c4n([C@@H]4O[C@H](CO)[C@@H](O)[C@H](O)[C@H]4O)c3c3[nH]c4c(O)cccc4c23)C1=O [Example 7],91,
O=C(O)CNN1C(=O)c2c(c3c4cccc(O)c4n([C@@H]4O[C@H](CO)[C@@H](O)[C@H](O)[C@H]4O)c3c3[nH]c4c(O)cccc4c23)C1=O [Example 8],300,
NC(=O)NN1C(=O)c2c(c3c4cccc(O)c4n([C@@H]4O[C@H](CO)[C@@H](O)[C@H](O)[C@H]4O)c3c3[nH]c4c(O)cccc4c23)C1=O [Example 9],28,
NC(=S)NN1C(=O)c2c(c3c4cccc(O)c4n([C@@H]4O[C@H](CO)[C@@H](O)[C@H](O)[C@H]4O)c3c3[nH]c4c(O)cccc4c23)C1=O [Example 10],460,
CCC(=O)NN1C(=O)c2c(c3c4cccc(O)c4n([C@@H]4O[C@H](CO)[C@@H](O)[C@H](O)[C@H]4O)c3c3[nH]c4c(O)cccc4c23)C1=O [Example 12],42,
O=C1c2c(c3c4cccc(O)c4n([C@@H]4O[C@H](CO)[C@@H](O)[C@H](O)[C@H]4O)c3c3[nH]c4c(O)cccc4c23)C(=O)N1NC(=O)C(F)(F)F [Example 13],220,
O=C1c2c(c3c4cccc(O)c4n([C@@H]4O[C@H](CO)[C@@H](O)[C@H](O)[C@H]4O)c3c3[nH]c4c(O)cccc4c23)C(=O)N1Nc1ccccn1 [Example 15],310,
NC(=O)C(=O)NN1C(=O)c2c(c3c4cccc(O)c4n([C@@H]4O[C@H](CO)[C@@H](O)[C@H](O)[C@H]4O)c3c3[nH]c4c(O)cccc4c23)C1=O [Example 17],44,
NNC(=O)NN1C(=O)c2c(c3c4cccc(O)c4n([C@@H]4O[C@H](CO)[C@@H](O)[C@H](O)[C@H]4O)c3c3[nH]c4c(O)cccc4c23)C1=O [Example 22],110,
O=C1c2c(c3c4cccc(O)c4n([C@@H]4O[C@H](CO)[C@@H](O)[C@H](O)[C@H]4O)c3c3[nH]c4c(O)cccc4c23)C(=O)N1NC1=NCCN1 [Example 25],48,
C=CCNN1C(=O)c2c(c3c4cccc(O)c4n([C@@H]4O[C@H](CO)[C@@H](O)[C@H](O)[C@H]4O)c3c3[nH]c4c(O)cccc4c23)C1=O [Example 28],< 29,
O=C(Nc1ccccc1)NN1C(=O)c2c(c3c4cccc(O)c4n([C@@H]4O[C@H](CO)[C@@H](O)[C@H](O)[C@H]4O)c3c3[nH]c4c(O)cccc4c23)C1=O [Example 33],110,
O=C(NN1C(=O)c2c(c3c4cccc(O)c4n([C@@H]4O[C@H](CO)[C@@H](O)[C@H](O)[C@H]4O)c3c3[nH]c4c(O)cccc4c23)C1=O)c1ccccn1 [Example 35],170,
O=C1c2c(c3c4cccc(O)c4n([C@@H]4O[C@H](CO)[C@@H](O)[C@H](O)[C@H]4O)c3c3[nH]c4c(O)cccc4c23)C(=O)N1N1CCCC1 [Example 37],95,

# Continued, in another order:
IC50 (mouse leukemia cell P388) [nM],SMILES,other results
< 26,CS(=O)(=O)NN1C(=O)c2c(c3c4cccc(O)c4n([C@@H]4O[C@H](CO)[C@@H](O)[C@H](O)[C@H]4O)c3c3[nH]c4c(O)cccc4c23)C1=O [Example 11],
< 27,NC(=O)CNN1C(=O)c2c(c3c4cccc(O)c4n([C@@H]4O[C@H](CO)[C@@H](O)[C@H](O)[C@H]4O)c3c3[nH]c4c(O)cccc4c23)C1=O [Example 14],
< 25,O=C1c2c(c3c4cccc(O)c4n([C@@H]4O[C@H](CO)[C@@H](O)[C@H](O)[C@H]4O)c3c3[nH]c4c(O)cccc4c23)C(=O)N1NCc1cccc(O)c1 [Example 23],
1,N#CCCNN1C(=O)c2c(c3c4cccc(O)c4n([C@@H]4O[C@H](CO)[C@@H](O)[C@H](O)[C@H]4O)c3c3[nH]c4c(O)cccc4c23)C1=O [Example 24],
27,CC(C)(C)OC(=O)NN1C(=O)c2c(c3c4cccc(O)c4n([C@@H]4O[C@H](CO)[C@@H](O)[C@H](O)[C@H]4O)c3c3[nH]c4c(O)cccc4c23)C1=O [Example 27],
5,O=C1c2c(c3c4cccc(O)c4n([C@@H]4O[C@H](CO)[C@@H](O)[C@H](O)[C@H]4O)c3c3[nH]c4c(O)cccc4c23)C(=O)N1N(Cc1ccccc1)Cc1ccccc1 [Example 29],
3,COC(=O)NN1C(=O)c2c(c3c4cccc(O)c4n([C@@H]4O[C@H](CO)[C@@H](O)[C@H](O)[C@H]4O)c3c3[nH]c4c(O)cccc4c23)C1=O [Example 30],
11,CC1(C)OC[C@@H]([C@@H](O)C(=O)NN2C(=O)c3c(c4c5cccc(O)c5n([C@@H]5O[C@H](CO)[C@@H](O)[C@H](O)[C@H]5O)c4c4[nH]c5c(O)cccc5c34)C2=O)O1 [Example 31],
19,O=C(NN1C(=O)c2c(c3c4cccc(O)c4n([C@@H]4O[C@H](CO)[C@@H](O)[C@H](O)[C@H]4O)c3c3[nH]c4c(O)cccc4c23)C1=O)c1ccccc1 [Example 34],
2,O=C1c2c(c3c4cccc(O)c4n([C@@H]4O[C@H](CO)[C@@H](O)[C@H](O)[C@H]4O)c3c3[nH]c4c(O)cccc4c23)C(=O)N1NCCO [Example 36],
